The values that follow are results of earlier work, collected in article PMC11491004, “CHF6523 data suggest that the phosphoinositide 3-kinase delta isoform is not a suitable target for the management of COPD” (Respiratory Research, 2024).

The structures appear in SMILES notation.

The test system of one data set is airway inflammation. Set-up: method as in ref 12 = [12]; 12. Blomqvist S Andreasson T Arlbrandt S Bold P Bjorhall K Brülls M In vivo dual Pi3kγδ inhibition in a rat model of pulmonary inflammation - evidence of local therapeutic activity Am J Respir Crit Ca. As to conditions: cited from earlier work.
For data set [1], the target named is T1, PI3Kδ (Homo sapiens, UniProt O00329). The arrangement: method as in ref 14 = [14]; 14. Wilson R Cahn A Montembault M Green J Musani N Begg M Safety, tolerability, pharmacokinetics (PK) and pharmacodynamics (PD) of single (SD) and repeat (RD) inhaled doses of a novel phosphoinositide. The conditions noted are these: healthy volunteer study; Day 12; cited from earlier work.
T1 sequence (O00329 whole entry): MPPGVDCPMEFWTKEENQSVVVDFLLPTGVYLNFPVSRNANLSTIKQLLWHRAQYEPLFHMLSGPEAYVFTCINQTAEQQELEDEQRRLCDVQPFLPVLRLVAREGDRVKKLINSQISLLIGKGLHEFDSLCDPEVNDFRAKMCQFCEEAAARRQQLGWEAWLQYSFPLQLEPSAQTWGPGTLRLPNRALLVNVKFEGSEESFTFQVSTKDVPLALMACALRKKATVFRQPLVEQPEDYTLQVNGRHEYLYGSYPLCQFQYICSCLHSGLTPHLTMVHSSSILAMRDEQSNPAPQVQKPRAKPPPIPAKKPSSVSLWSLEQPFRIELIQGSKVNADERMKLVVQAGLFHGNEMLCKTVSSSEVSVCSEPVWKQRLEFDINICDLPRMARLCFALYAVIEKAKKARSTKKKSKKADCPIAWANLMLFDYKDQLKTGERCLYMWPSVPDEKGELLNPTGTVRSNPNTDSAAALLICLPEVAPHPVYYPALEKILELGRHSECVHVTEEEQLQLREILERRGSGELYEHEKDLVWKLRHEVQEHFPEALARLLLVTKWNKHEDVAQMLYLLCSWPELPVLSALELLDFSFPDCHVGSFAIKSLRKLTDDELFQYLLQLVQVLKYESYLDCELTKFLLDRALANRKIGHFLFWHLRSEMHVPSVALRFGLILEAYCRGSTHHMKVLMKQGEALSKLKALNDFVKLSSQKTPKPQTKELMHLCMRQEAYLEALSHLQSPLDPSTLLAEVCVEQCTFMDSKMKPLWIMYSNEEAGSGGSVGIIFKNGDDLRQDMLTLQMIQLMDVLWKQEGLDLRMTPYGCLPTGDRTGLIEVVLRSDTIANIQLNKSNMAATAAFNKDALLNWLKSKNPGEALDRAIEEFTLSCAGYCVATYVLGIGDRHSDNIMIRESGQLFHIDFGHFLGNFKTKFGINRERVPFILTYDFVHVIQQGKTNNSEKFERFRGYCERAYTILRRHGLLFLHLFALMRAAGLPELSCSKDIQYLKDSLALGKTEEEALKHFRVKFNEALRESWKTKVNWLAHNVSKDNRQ
T1 sequence (P27986 whole entry partner): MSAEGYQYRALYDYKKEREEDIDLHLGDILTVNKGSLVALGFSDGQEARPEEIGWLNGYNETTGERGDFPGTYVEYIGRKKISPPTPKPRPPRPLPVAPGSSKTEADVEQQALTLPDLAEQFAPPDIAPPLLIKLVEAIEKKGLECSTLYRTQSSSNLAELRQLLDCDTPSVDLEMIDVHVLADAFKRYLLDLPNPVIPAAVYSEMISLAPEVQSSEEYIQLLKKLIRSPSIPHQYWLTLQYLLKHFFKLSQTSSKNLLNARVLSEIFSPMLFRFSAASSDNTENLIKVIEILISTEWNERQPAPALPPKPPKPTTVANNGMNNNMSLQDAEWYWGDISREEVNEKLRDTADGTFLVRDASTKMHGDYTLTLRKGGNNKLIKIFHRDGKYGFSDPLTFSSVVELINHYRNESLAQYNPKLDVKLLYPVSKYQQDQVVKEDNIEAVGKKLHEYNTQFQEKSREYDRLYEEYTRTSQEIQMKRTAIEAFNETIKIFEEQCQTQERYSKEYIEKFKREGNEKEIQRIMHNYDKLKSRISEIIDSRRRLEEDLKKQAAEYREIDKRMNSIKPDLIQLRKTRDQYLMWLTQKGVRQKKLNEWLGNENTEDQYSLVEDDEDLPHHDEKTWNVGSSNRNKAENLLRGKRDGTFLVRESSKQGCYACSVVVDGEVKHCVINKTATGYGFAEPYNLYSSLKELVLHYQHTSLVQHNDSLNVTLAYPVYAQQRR

In another data set the test system is sputum IL-6 and IL-8. The arrangement: method as in PMID 28823947. As to conditions: patients with COPD; cited from earlier work.
In data set [2] the target is T1, PI3Kδ. Set-up: from tissue; host or cells: induced sputum of COPD patients (in vivo dosing by inhalation); method as in PMID 30886125. As to conditions: healthy smokers; cited from earlier work.
Details of data set [3]: method as in PMID 34113095. As to conditions: cited from earlier work.
Data set [4] relates to sputum IL-5, IL-13, IL-6 or IL-8. Set-up: method as in PMID 30217958. As to conditions: patients with asthma; cited from earlier work.
Data set [5] concerns the target T1, PI3Kδ. The arrangement: from tissue; host or cells: induced sputum of COPD patients (in vivo dosing by inhalation); method as in PMID 36841351. The conditions noted are these: activated PI3Kδ syndrome; cited from earlier work.

In the case of `Cc1nc(Nc2cccc(N3CCCC3=O)n2)sc1-c1cc2c(c(S(C)(=O)=O)c1)C(=O)N([C@@H](C)C1CC1)C2` [AZD8154], in the data set with airway inflammation, the “Efficacy in a rat model of airway inflammation” value is “demonstrated efficacy”.
Consider `CC(C)N1CCN(Cc2cnc(-c3cc(-c4cccc5[nH]ccc45)cc4[nH]ncc34)o2)CC1` [nemiralisib], for which the “Reduction in PIP3” value on PI3Kδ [1] is reported as 35.7%. Moreover, the “Sputum IL-6 and IL-8 levels compared to placebo” value with sputum IL-6 and IL-8 is “did not significantly reduce”. Besides, the Target engagement result on PI3Kδ [2] is “demonstrated target engagement”. In addition, the “Primary and secondary endpoints” value in data set [3] (Phase IIb, patients with exacerbating COPD) was “neither the primary nor secondary endpoints were met”. In addition, the “Most common adverse event” value in data set [3] (experienced post-inhalation and dose-related) is recorded as “cough”. Further, in data set [4], the “Sputum IL-5, IL-13, IL-6 or IL-8 compared to placebo” value was “did not yield statistically significant reductions”. Moreover, at PI3Kδ [5], the “Changes in target engagement or downstream inflammatory markers in induced sputum” value is “no meaningful changes”.
